The nature of assay [1]: Inhibition of protein phosphatase (PP2A) at 250 uM.
Assay [2] is filed under the species Homo sapiens. As to the kind of experiment: Inhibition of protein phosphatase (PP2A) at 10 uM using fluorescein diphosphate.
Assay [3] can be described thus: Inhibitory activity against protein phosphatase (PP2A) at 1 uM using fluorescein diphosphate.
The nature of assay [4]: Inhibition of protein phosphatase (PP2A) at 100 uM.
In assay [5] the test system is Serine/threonine-protein phosphatase 2A catalytic subunit alpha. Briefly: Inhibitory activity against protein phosphatase (PP2A) at concentration of 1 uM using fluorescein diphosphate as substrate.
Assay [6] deals with T1, Serine/threonine-protein phosphatase 2A 55 kDa regulatory subunit B alpha isoform (Homo sapiens) (UniProt P63151).
T1 sequence (whole entry): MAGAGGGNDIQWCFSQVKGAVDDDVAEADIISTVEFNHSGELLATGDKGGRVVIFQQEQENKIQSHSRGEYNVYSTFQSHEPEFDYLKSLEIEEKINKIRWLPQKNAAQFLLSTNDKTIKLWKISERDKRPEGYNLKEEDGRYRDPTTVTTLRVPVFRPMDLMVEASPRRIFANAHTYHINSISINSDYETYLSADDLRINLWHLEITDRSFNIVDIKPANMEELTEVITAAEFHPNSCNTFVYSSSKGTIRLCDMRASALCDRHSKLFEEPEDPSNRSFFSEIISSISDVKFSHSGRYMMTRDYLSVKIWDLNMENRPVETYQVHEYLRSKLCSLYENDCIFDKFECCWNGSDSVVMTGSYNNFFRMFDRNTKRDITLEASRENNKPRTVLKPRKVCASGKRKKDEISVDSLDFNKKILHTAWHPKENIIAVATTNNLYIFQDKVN
As to the kind of experiment: (§1) Inhibitory activity against protein phosphatase (PP2A) at a concentration of 250 uM using fluorescein diphosphate as substrate.

Assay [7] concerns Serine/threonine-protein phosphatase 2A catalytic subunit alpha. As to the kind of experiment: Inhibitory activity against protein phosphatase (PP2A) at concentration of 100 uM using fluorescein diphosphate as substrate.
The test system is the same in assay [8]. As to the kind of experiment: Inhibitory activity against protein phosphatase (PP2A) at concentration of 10 uM using fluorescein diphosphate as substrate.
Assay [9] addresses T2, Serine/threonine-protein phosphatase 2A activator (Homo sapiens) (UniProt Q15257).
T2 sequence (whole entry): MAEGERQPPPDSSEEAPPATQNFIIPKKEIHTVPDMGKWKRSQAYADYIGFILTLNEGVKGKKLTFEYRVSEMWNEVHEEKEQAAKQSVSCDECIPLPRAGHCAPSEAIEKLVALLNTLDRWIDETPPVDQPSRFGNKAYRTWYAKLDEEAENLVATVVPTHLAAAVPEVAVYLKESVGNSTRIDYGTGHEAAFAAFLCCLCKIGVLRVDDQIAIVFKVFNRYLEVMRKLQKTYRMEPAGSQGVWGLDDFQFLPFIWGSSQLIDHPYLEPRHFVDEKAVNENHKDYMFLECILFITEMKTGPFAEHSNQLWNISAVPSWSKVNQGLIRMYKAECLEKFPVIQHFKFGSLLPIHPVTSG
As to the kind of experiment: Inhibitory activity against protein phosphatase (PP2A) at concentration of 250 uM using fluorescein diphosphate as substrate.

Assay [10] relates to Serine/threonine-protein phosphatase 2A catalytic subunit alpha. As to the kind of experiment: Inhibitory activity against protein phosphatase (PP2A) at a concentration of 200 uM using fluorescein diphosphate as substrate.
For assay [11] the test system is unchanged. As to the kind of experiment: Inhibitory activity against protein phosphatase (PP2A) at a concentration of 150 uM using fluorescein diphosphate as substrate.
Assay [12] shares this test system. Briefly: Inhibitory activity against protein phosphatase (PP2A) at a concentration of 125 uM using fluorescein diphosphate as substrate.
For assay [13], the target named is T2, Serine/threonine-protein phosphatase 2A activator (Homo sapiens). Briefly: Inhibitory activity against protein phosphatase (PP2A) at a concentration of 150 uM using fluorescein diphosphate as substrate.
Assay [14] has the same target. Briefly: Inhibitory activity against protein phosphatase (PP2A) at a concentration of 100 uM using fluorescein diphosphate as substrate.
Assay [15] shares this target. The description is as §1.

In general, inhibition refers to the percentage by which the read-out fell short of the control. For `CC(C)(O)[C@H]1CC[C@](C)([C@@H](O)CC[C@@](O)(CO)C2=CC[C@H]3O[C@@H]([C@]4(C)CC[C@@H](Br)C(C)(C)O4)CC[C@]3(C)O2)O1`, the inhibition came out at 97.8% in assay [1], 31.8% in assay [2], 15.2% in assay [3] and 89.6% in assay [4].

In the case of `CC(CCC[C@H]1O[C@@H]([C@]2(C)CC[C@@H](Br)C(C)(C)O2)CC[C@]1(C)O)CC[C@H](O)[C@@]1(C)CC[C@H](C(C)(C)O)O1` (stereo partly specified), the inhibition was 43.6% in assay [5], 74.5% in assay [1], 45.9% in [2] and 57.8% in assay [4].

Take `CC(C)(O)[C@H]1CC[C@](C)([C@@H](O)CC[C@](O)(CO)C2=CC[C@H]3O[C@@H]([C@]4(C)CC[C@@H](Br)C(C)(C)O4)CC[C@]3(C)O2)O1`: the inhibition was 100% in [1], 93.2% in [2], 52.8% in assay [3] and 99.1% in assay [4].

`C=C(CC[C@H](O)[C@@]1(C)CC[C@H](C(C)(C)O)O1)[C@H]1CC[C@H]2O[C@@H]([C@]3(C)CC[C@@H](C(C)(C)OC)O3)CC[C@]2(C)O1`: the inhibition in assay [1] was determined as 57.2%; in assay [2], 4.7%; in assay [3] it was 0%; in assay [4] it was 65.1%.

For the compound `C=C(CC[C@H](O)[C@@]1(C)CC[C@H](C(C)(C)O)O1)[C@H]1CC[C@H]2O[C@@H]([C@]3(C)CC[C@](OC)(C(C)C)O3)CC[C@]2(C)O1`, the inhibition in assay [1] turned out to be 55.4%; in assay [2], 2.7%; in assay [3], 0%; in assay [4] it was 43.1%.

Take `C/C(=C\C[C@H](O)[C@@]1(C)CC[C@H](C(C)(C)O)O1)[C@H]1CC[C@H]2O[C@@H]([C@]3(C)CC[C@@H](Br)C(C)(C)O3)CC[C@@]2(C)O1`: the inhibition was found to be 41.9% in assay [2], 17.9% in [3], 99.5% in assay [4] and 100% in assay [6].

With `C=C(CC[C@H](O)[C@@]1(C)CC[C@H](C(C)(C)O)O1)[C@H]1CC[C@H]2O[C@@H]([C@]3(C)CCC(=O)O3)CC[C@]2(C)O1`, the inhibition in assay [1] was determined as 63.2%; in assay [2], 40.1%; in [3], 33.7%; in assay [4] it was 49.4%.

For `C=C(CC[C@@H](O)[C@]1(C)CC[C@H](C(C)(C)O)O1)[C@H]1CC[C@H]2O[C@@H]([C@]3(C)CC[C@@H](Br)C(C)(C)O3)CC[C@]2(C)O1`, the inhibition in assay [7] is 66.8%; in assay [8] it was 23.7%; in assay [5] it was 7.5%; in assay [9], 95.3%.

Turning to `C=C(CC[C@H](O)[C@@]1(C)CC[C@H](C(C)(C)O)O1)[C@H]1CC[C@H]2O[C@]3(C)CC[C@@H](Br)C(C)(C)O[C@H]3CC[C@]2(C)O1`, the inhibition in assay [7] was 59.7%; in [8], 20.4%; in assay [5], 18.9%; in [1], 66.5%.

As to `C/C(=C/C[C@@H](O)[C@]1(C)CC[C@H](C(C)(C)O)O1)[C@H]1CC[C@H]2O[C@@H]([C@]3(C)CC[C@@H](Br)C(C)(C)O3)CC[C@]2(C)O1`, the inhibition in assay [10] stood at 35.8%; in [1], 59.8%; in assay [11], 32.7%; in [4], 6.5%; in assay [12], 18.8%.

In the case of `C=C([C@@H](O)C[C@H](O)[C@@]1(C)CC[C@H](C(C)(C)O)O1)[C@H]1CC[C@H]2O[C@@H]([C@]3(C)CC[C@@H](Br)C(C)(C)O3)CC[C@]2(C)O1`, the inhibition in assay [1] worked out at 100%; in [2], 93.4%; in assay [3] it was 41.1%; in [4], 100%.

On to `C=C(CC[C@H](O)[C@@]1(C)CC[C@H](C(C)(C)O)O1)[C@H]1CC[C@H]2O[C@@H]([C@]3(C)CC[C@@H](Br)C(C)(C)O3)CC[C@@]2(C)O1`, for which the inhibition came out at 26.1% in assay [13]; 47.8% in [10]; 66.4% in assay [1]; 11.4% in assay [4]; 24% in assay [12].

Regarding `C=C(CC[C@H](O)[C@@]1(C)CC[C@H](C(C)(C)O)O1)[C@H]1CC[C@H]2O[C@@H]([C@]3(C)CC[C@@H](C(C)(C)O)O3)CC[C@]2(C)O1`, the inhibition turned out to be 55.4% in assay [1], 0% in assay [2], 0% in assay [3] and 40.4% in assay [4].

As to `C=C(CC[C@H]1O[C@@H](C(C)(C)O)CC[C@]1(C)O)[C@H]1CC[C@H]2O[C@@H]([C@]3(C)CC[C@@H](Br)C(C)(C)O3)CC[C@]2(C)O1`, the inhibition was 81.3% in [1], 6.2% in assay [2], 0% in assay [3] and 74.7% in assay [4].

Regarding `C=C([C@H](O)C[C@H](O)[C@@]1(C)CC[C@H](C(C)(C)O)O1)[C@H]1CC[C@H]2O[C@@H]([C@]3(C)CC[C@@H](Br)C(C)(C)O3)CC[C@]2(C)O1`, the inhibition in assay [1] is 79.3%; in assay [2], 45.6%; in assay [3] it was 42.2%; in [4] it was 65.1%.

For `C=C(CC[C@H](O)[C@@]1(C)CC[C@H](C(C)(C)O)O1)[C@H]1CC[C@H]2O[C@@H]([C@]3(C)CC[C@@H](Br)C(C)(C)O3)CC[C@]2(C)O1`, the inhibition in assay [14] was found to be 25.2%; in [2], 12.2%; in [3], 8.2%; in [15] it was 37.7%.
